Experimental data reported in US7354920B2, “Aryl and heteroaryl morpholine derivatives” (Eli Lilly and Company, priority 2002, dated 2008).
Where a name gives a salt, the structure may show the parent alone. Read-outs that look alike come from different tables or passages of the source.

Molecular target: T1, human norepinephrine transporter (Homo sapiens, UniProt P23975)
T1 construct: isolate and amplify each of the three full-length cDNAs from an appropriate cDNA library; expressed in transfected cells; host or cells: HEK293 cells, stably transfected (pcDNA3.1-type vector); membranes used
T1 sequence (P23975 whole entry): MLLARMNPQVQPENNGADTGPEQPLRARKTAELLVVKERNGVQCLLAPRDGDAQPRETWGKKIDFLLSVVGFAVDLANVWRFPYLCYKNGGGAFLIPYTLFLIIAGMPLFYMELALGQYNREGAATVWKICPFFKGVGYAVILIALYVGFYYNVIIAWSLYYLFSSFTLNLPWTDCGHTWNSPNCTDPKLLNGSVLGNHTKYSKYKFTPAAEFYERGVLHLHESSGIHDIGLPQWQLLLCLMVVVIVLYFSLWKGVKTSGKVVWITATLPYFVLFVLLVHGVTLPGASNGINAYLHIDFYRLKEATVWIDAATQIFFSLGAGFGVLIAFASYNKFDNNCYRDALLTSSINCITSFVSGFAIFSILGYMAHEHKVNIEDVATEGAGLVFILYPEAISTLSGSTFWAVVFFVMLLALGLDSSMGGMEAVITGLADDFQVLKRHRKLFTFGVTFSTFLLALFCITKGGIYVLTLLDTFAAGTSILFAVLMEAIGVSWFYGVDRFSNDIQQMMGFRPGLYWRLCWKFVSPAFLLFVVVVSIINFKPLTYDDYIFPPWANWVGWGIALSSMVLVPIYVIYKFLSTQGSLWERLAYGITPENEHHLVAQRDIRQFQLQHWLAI
Assay: Scintillation proximity assay, [3H]-nisoxetine binding at the norepinephrine transporter

SMILES: OC(Cc1ccccc1OC(F)(F)F)(c1ccccc1)[C@H]1CNCCO1 (stereo in doubt) [Example 5, (S,R) 1-Morpholin-2-yl-1-phenyl-2-(2-trifluoromethoxy-phenyl)-ethanol hydrochloride]
- Ki (scintillation proximity assay, 3H-nisoxetine, HEK-293 membranes, read-out: NET Ki): 12.4 nM

SMILES: COc1ccc(F)cc1CC(O)(c1ccccc1)[C@H]1CNCCO1 (stereo in doubt) [Example 8, (S,R) 2-(5-Fluoro-2-methoxy-phenyl)-1-morpholin-2-yl-1-phenyl-ethanol hydrochloride]
- Ki: 3.6 nM
